From US10919885B2, “Compounds and uses thereof” (Yumanity Therapeutics, Inc., priority 2018, dated 2021)
pIC50: −log10 of the molar value.

Columns and labels:
[1] = target: human SCD1 (Homo sapiens (Human), UniProt O00767); assay: Yeast growth assay, strain expressing human SCD1 as the sole desaturase (reduced growth as surrogate for SCD inhibition); type: cell-based; details: yeast with OLE1 deleted expressing human SCD1 from a plasmid; growth read as OD600 after 40 h at 30° C.; top drug concentration 33.3 μM
Method: (§1) Strains expressing SCD1 or SCD5 as the sole desaturase, the human SCD1 and SCD5 genes were used to evaluate inhibition of SCD1/SCD5 using reduced growth as a surrogate for SCD inhibition. These yeast strains express human SCD1 or SCD5 from a plasmid harbored in a strain in which the yeast OLE1 gene is deleted.
(§2) All compound profiling experiments were performed using the same basic protocol. Yeast were cultured using standard techniques in complete synthetic media lacking uracil and containing yeast nitrogen base supplemented with 2% (w/v) glucose (SD-Ura) Starter cultures were inoculated in 3 mL SD-Ura media containing 0.01% tween and 0.2 mM palmitoleic and oleic acid. Cultures were incubated overnight in a 30° C. shaker incubator (225 rpm). Saturated morning cultures were centrifuged, washed in SD-Ura media lacking TWEEN-20 and fatty acids, and then diluted 1:20 in fresh SD-Ura media also lacking TWEEN-20 and fatty acids.
(§3) Compound administration was performed in two separate steps. First, 15 μL of SD-Ura was dispensed into clear 384-well assay plates using a MULTIDROP™ Combi reagent dispenser. […] The cultures described above were centrifuged and washed with media lacking TWEEN-20 or oleic and palmitoleic acids.
(§4) After yeast delivery, assay plates were incubated under humidified conditions at 30° C. for 40 h. Yeast growth was monitored by reading the OD600 of each well using a microplate reader (Perkin Elmer EnVision™).

[2] = target: human SCD5 (Homo sapiens (Human), UniProt Q86SK9); assay: Yeast growth assay, strain expressing human SCD5 as the sole desaturase (reduced growth as surrogate for SCD inhibition); type: cell-based; details: yeast with OLE1 deleted expressing human SCD5 from a plasmid; growth read as OD600 after 40 h at 30° C.; top drug concentration 33.3 μM
Method: as §1, §2, §3, §4

Chain of human SCD5 (Q86SK9 whole entry): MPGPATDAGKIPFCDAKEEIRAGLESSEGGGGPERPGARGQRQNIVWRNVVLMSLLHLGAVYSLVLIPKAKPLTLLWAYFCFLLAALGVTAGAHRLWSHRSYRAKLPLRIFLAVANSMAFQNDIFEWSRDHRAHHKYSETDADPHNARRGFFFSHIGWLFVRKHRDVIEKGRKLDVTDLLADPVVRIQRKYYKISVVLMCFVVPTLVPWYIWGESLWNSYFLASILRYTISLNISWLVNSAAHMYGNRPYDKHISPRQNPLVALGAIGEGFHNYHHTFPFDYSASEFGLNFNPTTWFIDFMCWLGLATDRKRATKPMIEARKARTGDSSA
Chain of human SCD1 (O00767 whole entry): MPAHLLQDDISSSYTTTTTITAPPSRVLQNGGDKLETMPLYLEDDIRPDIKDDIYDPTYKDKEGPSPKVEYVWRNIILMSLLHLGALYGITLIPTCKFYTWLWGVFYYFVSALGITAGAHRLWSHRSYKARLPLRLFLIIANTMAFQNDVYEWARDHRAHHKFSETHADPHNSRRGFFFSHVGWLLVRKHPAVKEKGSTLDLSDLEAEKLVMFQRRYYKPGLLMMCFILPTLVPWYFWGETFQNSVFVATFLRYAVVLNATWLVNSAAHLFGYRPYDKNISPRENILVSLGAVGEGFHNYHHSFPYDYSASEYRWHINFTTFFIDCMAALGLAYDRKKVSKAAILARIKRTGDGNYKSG

SMILES | pIC50 [1] | pIC50 [2]
CNC(=O)c1ccc(-c2cc(C(=O)N3CC=C(c4ccccc4)CC3)no2)cc1 [Compound 319] | < 4.35 | < 4.35
CC(c1ccccc1)n1cc(NC(=O)c2cc(-c3ccccc3)on2)cn1 (centres unmarked) [Compound 51] | < 4.35 | < 4.35
CCc1cc(C(=O)Nc2cnn(Cc3cccc(F)c3)c2)no1 [Compound 104, 5-ethyl-N-(1-(3-fluorobenzyl)-1H-pyrazol-4-yl)isoxazole-3-carboxamide] | 7.18 | 6.00
CC1(c2ccccc2)CCN(C(=O)c2cc(-c3ccc4c(c3)OCO4)on2)CC1 [Compound 290, 1-[5-(2H-1,3-benzodioxol-5-yl)-1,2-oxazole-3-carbonyl]-4-methyl-4-phenylpiperidine] | < 4.35 | 5.53
Cc1ncc(-c2cc(C(=O)Nc3cnn(Cc4cccc(F)c4)c3)no2)o1 [Compound 67, N-(1-(3-fluorobenzyl)-1H-pyrazol-4-yl)-5-(2-methyloxazol-5-yl)isoxazole-3-carboxamide] | 6.00 | 5.10
O=C(c1cc(-c2ccc3c(c2)OCO3)on1)N1CC(Nc2ccccc2)C1 [Compound 221] | < 4.35 | < 4.35
COc1ccc(C2CCCN2C(=O)c2cc(-c3ccc4ncoc4c3)on2)cc1 (centres unmarked) [Compound 401] | < 4.35 | < 4.35
COc1ccncc1Cn1cc(NC(=O)c2cc(-c3ccccc3F)on2)cn1 [Compound 173] | < 4.35 | < 4.35
COc1cc(F)ccc1C1CCCN1C(=O)c1cc(-c2ccc3c(c2)OCO3)on1 (centres unmarked) [Compound 430] | < 4.35 | 4.52
CCOC(=O)c1cc(C(=O)Nc2cnn(Cc3ccccc3)c2)on1 [Compound 151] | < 4.35 | < 4.35
Cn1cc(NC(=O)c2cc(-c3ccco3)on2)cn1 [Compound 10] | < 4.35 | < 4.35
O=C(Nc1cnn(Cc2cnccc2C(F)(F)F)c1)c1cc(-c2ccccc2)on1 [Compound 160, 5-phenyl-N-(1-((4-(trifluoromethyl)pyridin-3-yl)methyl)-1H-pyrazol-4-yl)isoxazole-3-carboxamide] | < 4.35 | –
O=C(Nc1cnn(Cc2ccccc2)c1)c1cc(-c2cncs2)on1 [Compound 37, N-(1-benzylpyrazol-4-yl)-5-thiazol-5-yl-isoxazole-3-carboxamide] | 6.59 | –
O=C(c1cc(-c2ccccn2)on1)N1CCC(c2ccccc2)C1 (centres unmarked) [Compound 351] | < 4.35 | –
O=C(c1cc(-c2ccccc2)on1)N1CC(Cc2ccccc2)C1 [Compound 211, (3-benzylazetidin-1-yl)-(5-phenylisoxazol-3-yl)methanone] | 6.92 | –
O=C(NC1CCN(c2ccccc2)C1)c1cc(-c2ccco2)on1 (centres unmarked) [Compound 343] | < 4.35 | –
CC(C)c1cc(C(=O)Nc2cnn(Cc3cccc(F)c3)c2)no1 [Compound 60, N-(1-(3-fluorobenzyl)-1H-pyrazol-4-yl)-5-isopropylisoxazole-3-carboxamide] | 7.52 | –
O=C(Nc1cnn(Cc2cc(F)ccc2C(F)(F)F)c1)c1cc(-c2ccco2)on1 [Compound 36, N-[1-[[5-fluoro-2-(trifluoromethyl)phenyl]methyl]pyrazol-4-yl]-5-(2-furyl)isoxazole-3-carboxamide] | < 4.35 | –

SMILES | pIC50 [1] | pIC50 [2]
COc1ccc(-c2cc(C(=O)N3CCN(c4ccccc4)CC3)no2)cc1OC [Compound 274] | < 4.35 | –
O=C(Nc1cnn(Cc2ccccc2Cl)c1)c1cc(-c2ccco2)on1 [Compound 23, N-[1-[(2-chlorophenyl)methyl]pyrazol-4-yl]-5-(2-furyl)isoxazole-3-carboxamide] | < 4.35 | –
O=C(Nc1cnn(Cc2ccccc2C(F)(F)F)c1)c1cc(-c2ccco2)on1 [Compound 14, 5-(furan-2-yl)-N-(1-(2-(trifluoromethyl)benzyl)-1H-pyrazol-4-yl)isoxazole-3-carboxamide] | < 4.35 | –
O=C(c1cc(N2CCOCC2)on1)N1CCC[C@H]1c1ccccc1 [Compound 463] | < 4.35 | –
Cn1ccnc1C1CCCN1C(=O)c1cc(-c2ccc3c(c2)OCO3)on1 (centres unmarked) [Compound 446] | < 4.35 | –
O=C(c1cc(-c2ccccc2)on1)N1CCC2(CCN(c3ccccc3)C2)C1 (centres unmarked) [Compound 341] | < 4.35 | –
O=C(c1cc(N2CCOCC2)on1)N1CC(c2ccccc2)C1 [Compound 248] | 4.48 | –
COc1cccc(F)c1C1CCCN1C(=O)c1cc(-c2ccc3c(c2)OCO3)on1 (centres unmarked) [Compound 453] | < 4.35 | –
CNC(=O)c1ccc(-c2cc(C(=O)N3CCC(c4ccccc4)CC3)no2)cc1 [Compound 304, N-methyl-4-[3-(4-phenylpiperidine-1-carbonyl)isoxazol-5-yl]benzamide] | 6.42 | –
O=C(Nc1cnn(Cc2ccccc2)c1)c1cc(-c2cnco2)on1 [Compound 149, N-(1-benzyl-1H-pyrazol-4-yl)-5-(oxazol-5-yl)isoxazole-3-carboxamide] | < 4.35 | –
O=C(c1cc(-c2ccc3c(c2)OCO3)on1)N1CCC(O)(c2ccccc2)CC1 [Compound 300] | < 4.35 | –
O=C(Nc1cnn(Cc2cccc(F)c2)c1)c1cc(N2CCCCC2)on1 [Compound 102, N-(1-(3-fluorobenzyl)-1H-pyrazol-4-yl)-5-(piperidin-1-yl)isoxazole-3-carboxamide] | 7.44 | –
O=C(c1cc(-c2ccc3c(c2)OCO3)on1)N1CCC[C@H]1C(F)(F)F [Compound 373] | < 4.35 | –
O=C(Nc1cnn(Cc2ccccc2)c1)c1cc(-c2ccco2)no1 [Compound 11, N-(1-benzylpyrazol-4-yl)-3-(2-furyl)isoxazole-5-carboxamide] | 7.30 | –
CC(C)(C)OC(=O)N1CCN(C(=O)c2cc(-c3ccc4c(c3)OCO4)on2)CC1 [Compound 267] | < 4.35 | –
O=C(c1cc(-c2ccc3c(c2)OCO3)on1)N1CCC[C@H]1c1ccccc1 [Compound 327] | 4.47 | –
O=C(c1cc(-c2ccc3c(c2)OCO3)on1)N1CCC(c2cccc(F)c2)CC1 [Compound 309, [5-(1,3-benzodioxol-5-yl)isoxazol-3-yl]-[4-(3-fluorophenyl)-1-piperidyl]methanone] | < 4.35 | –

Further lines, results first:

pIC50 [1] | pIC50 [2] | SMILES
< 4.35 | < 4.35 | Cc1ncc(-c2cc(C(=O)Nc3cnn(Cc4ccccc4)c3)no2)s1 [Compound 133]
< 4.35 | < 4.35 | O=C(Nc1cnn(Cc2cc(F)ccc2C(F)(F)F)c1)c1cc(-c2ncccc2F)on1 [Compound 107]
< 4.35 | < 4.35 | O=C(c1cc(-c2ccccc2)on1)N1CC(Nc2ccccc2)C1 [Compound 214]
< 4.35 | – | O=C(Nc1cnn(Cc2cccc(Cl)c2)c1)c1cc(-c2ccco2)on1 [Compound 22, N-[1-[(3-chlorophenyl)methyl]pyrazol-4-yl]-5-(2-furyl)isoxazole-3-carboxamide]
8.00 | – | O=C(Nc1cnn(Cc2ccccc2)c1)c1noc2c1CCCC2 [Compound 156, N-(1-benzyl-1H-pyrazol-4-yl)-4,5,6,7-tetrahydrobenzo[d]isoxazole-3-carboxamide]
< 4.35 | – | COC1CCN(c2cc(C(=O)N3CC(c4ccccc4)C3)no2)CC1 [Compound 249]
4.60 | – | O=C(Nc1cnn(Cc2cnccc2C(F)(F)F)c1)c1noc2c1CCCC2 [Compound 194, N-(1-{[4-(trifluoromethyl)pyridin-3-yl]methyl}-1H-pyrazol-4-yl)-4,5,6,7-tetrahydro-1,2-benzoxazole-3-carboxamide]
8.00 | – | O=C(Nc1cnn(Cc2cccc(F)c2)c1)c1noc2c1CCCC2 [Compound 193, N-{1-[(3-fluorophenyl)methyl]-1H-pyrazol-4-yl}-4,5,6,7-tetrahydro-1,2-benzoxazole-3-carboxamide]
5.32 | – | O=C(c1cc(-c2ccccc2)on1)N1CC=C(c2cc(F)ccc2Cl)CC1 [Compound 305]
< 4.35 | – | O=C(Nc1cnn(Cc2ccccc2)c1)c1cc(-c2ccccc2F)on1 [Compound 38, N-(1-benzylpyrazol-4-yl)-5-(2-fluorophenyl)isoxazole-3-carboxamide]
< 4.35 | – | O=C(c1cc(-c2ccc3c(c2)OCO3)on1)N1CCCC1c1nc2ccccc2o1 (centres unmarked) [Compound 461]
4.44 | – | COc1ccc(C2CCCN2C(=O)c2cc(-c3ccc(F)c(OC)c3)on2)cc1 (centres unmarked) [Compound 383]
5.40 | – | O=C(Nc1cnn(Cc2ccccc2)c1)c1cc(-c2ccncn2)on1 [Compound 148]
< 4.35 | – | Cn1c(=O)oc2ccc(-c3cc(C(=O)N4CCC[C@H]4c4ccccc4)no3)cc21 [Compound 444]
< 4.35 | – | COc1ccc([C@@H]2CCCN2C(=O)c2cc(-c3ccc4c(c3)OCO4)on2)cc1 [Compound 359]
< 4.35 | – | Cc1cccc(C2CCCN2C(=O)c2cc(-c3ccc4c(c3)OCO4)on2)c1 (centres unmarked) [Compound 355]
< 4.35 | – | Cc1cnccc1-c1cc(C(=O)Nc2cnn(Cc3ccccc3)c2)no1 [Compound 201, N-(1-benzyl-1H-pyrazol-4-yl)-5-(3-methylpyridin-4-yl)isoxazole-3-carboxamide]
< 4.35 | – | O=C(c1cc(-c2ccc(Cl)cn2)on1)N1CC(Cc2ccccc2)C1 [Compound 254]
< 4.35 | – | O=C(c1cc(-c2ccc3c(c2)OCO3)on1)N1CCOc2ccccc21 [Compound 262]
